The data set is described as follows: Aqueous solubility / Biopharmaceutical Classification System classification. Type of data set: physicochemical. From the text:
2-[2-(nitrooxy)ethoxy]ethyl {2-[(2,6-dichlorophenyl)amino]phenyl}acetate is a lipophilic drug with poor aqueous solubility and a low melting point. Said drug can be classified into class 2 according to the Biopharmaceutical Classification System proposed by Amidon et al. (Pharm. Res. 12 (1995) pp. 413420). Compounds of this class are characterised by their low aqueous solubility but reasonably well permeability. A biopharmaceutical problem with these drugs is that their absorption from the gastro-intestinal tract (GIT) may be dissolution rate limited, resulting in poor bioavailibility upon oral administration. One object of the invention is to provide an oral drug delivery composition with satisfactory bioavailability.

Structures are written as SMILES.

On to `O=C(Cc1ccccc1Nc1c(Cl)cccc1Cl)OCCOCCO[N+](=O)[O-]` [2-[2-(nitrooxy)ethoxy]ethyl {2-[(2,6-dichlorophenyl)amino]phenyl}acetate], for which the aqueous solubility result (qualitative statement) is “poor”. Also, the “class according to the Biopharmaceutical Classification System” value (system proposed by Amidon et al.) is reported as “class 2”.

The values are drawn from patent US20060141044A1, “Pharmaceutical compositions based on diclofenac derivate” (priority 2003, published 2006).
